Measurements: US10669238B2, “Irreversible bruton's tyrosine kinase inhibitor” (HEFEI INSTITUTES OF PHYSICAL SCIENCE, CHINESE ACADEMY OF …, priority 2016, dated 2020)

How the values were obtained:
[1] = test system: diffuse large B-cell lymphoma cell lines TMD8; experiment: Cell proliferation (Cell Titer-Glo), TMD8; type: cell-based; details: Homo sapiens, TMD8, 72 h, read-out: Effects on cell proliferation (GI50)
From the text: The following cells were adopted in the example: acute myelocytic leukemia cell strains (acute myelocytic leukemia, AML) HL-60, B-lymphoma cell Ramos, colon cancer cells HCT116, leukemic cells K562, B-cell lymphoma cells U2932, diffuse large B-cell lymphoma cell line OCI-LY10, diffuse histiocytic lymphoma cells SU-DHL-2, diffuse large B-cell lymphoma cell lines TMD8, leukemia cell OCI-AML-3, acute promyelocytic leukemia cell line NB-4 (Lu+), MDS-RAEB (myelodysplastic syndrome—excessive blasts) cell lines SKM-1, human leukocyte leukemia cells HEL, acute myeloid leukemia cell lines (acute myelocytic leukemia, AML) U937, acute myeloid leukemia cell lines (acute myelocytic leukemia, AML) MOLM14, acute myeloid leukemia cell lines (acute myelocytic leukemia, AML) MOLM13, acute myeloid leukemia cell lines (acute myelocytic leukemia, AML) M-07e, acute myeloid leukemia cell lines (acute myelocytic leukemia, AML) MV4-11, acute myeloid leukemia cell lines (acute myelocytic leukemia, AML) MOLM16, diffuse large B-cell lymphoma cell lines Pfeiffer, multiple myeloma cell lines (multiple myeloma) RPM18226, bone marrow plasma cell tumor cells AMO-1, mouse pro-B cells BaF3, all purchased from ATCC.
In this example different concentrations (0.000508 μM, 0.00152 μM, 0.00457 μM, 0.0137 μM, 0.0411 μM, 0.123 μM, 0.370 μM, 1.11 μM, 3.33 μM, 10 μM) of Compound 1 and Compound 6 were respectively added into the above cells which were then cultured for 72 hours. The number of viable cells was determined via quantitative determination of ATP in living cells by using Cell Titer-Glo® (Promega, the USA) Chemical Luminescent Cell Viability Assay kit.

BTK protein kinase = BTK protein kinase (Homo sapiens, UniProt Q06187); experiment: In vitro enzymatic activity against BTK (ADP-Glo); type: biochemical; details: compound with BTK 4 hours at room temperature; ATP 10 μM, 37° C. 1 hour; values in nM
Summary of the method: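 BTK (1.5 ng/μL enzyme solution) was preincubated with compound (final 10 μM to 0.003 μM) for 4 h at room temperature. Reaction ran 1 h at 37 °C with 10 μM ATP and 0.2 μg/μL poly(Glu,Tyr) 4:1 (final). ADP formed was measured by ADP-Glo luminescence, and IC50 was obtained by curve plotting.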

[2] = test system: phosphorylation of tyrosine Y223 on Btk; experiment: Effects on BTK Y223 and downstream signaling pathway proteins in cells (anti-IgM stimulation); type: cell-based, human; details: Compound 1 in MEC-2, Pfeiffer, Ramos, TMD8, U2932; Compound 35 in MEC-1; 4 hours, then anti-IgM 10 mins
From the text: By assaying a number of cellular biochemical and functional endpoints, the properties of the compounds were further characterized. […] In this experiment, PC132765 (purchased from Shanghai Haoyuan Chemexpress Co., Ltd.), CGI11746 (purchased from Shanghai Haoyuan Chemexpress Co., Ltd.) and Compound 6 (prepared herein) were used as control (see FIGS. 2a-2f).
Effects of the compounds on phosphorylation of BTKY223, BTKY551, PLCγ1Y783, PLCγ2Y759, PLCγ2Y1217, P—NF-κB P65, P-AKT Ser473, Erk Thr202/Tyr204 and the like were determined (FIGS. 2a-2f).

BTK WT = BTK WT (Homo sapiens, UniProt Q06187); experiment: Btk cell-free kinase assay, BTK WT protein; type: biochemical; details: compound 30 mins at room temperature, then 100 μM ATP 20 min at 37° C.; read-out: EC50 against BTK WT protein
From the text: (§1) The BTK wild-type plasmid and the BTK mutant plasmid (C481S) were respectively transfected into SF9 cells (purchased from invitrogen), and after three generations of virus amplification, the P3-generation virus was used to transfect SF9 cells which were collected after 72-hour culture to obtain protein BTK WT and protein BTK C481S, which were then purified.

BTK C481S = target: T1, BTK C481S (Homo sapiens, UniProt Q06187, C481S); experiment: Btk cell-free kinase assay, BTK C481S mutant protein; type: biochemical; details: compound 30 mins at room temperature, then 100 μM ATP 20 min at 37° C.; read-out: EC50 against BTK C481S
T1 construct: made in house; host or cells: SF9 insect cells
From the text: as §1

Chain of BTK protein kinase (Q06187 whole entry): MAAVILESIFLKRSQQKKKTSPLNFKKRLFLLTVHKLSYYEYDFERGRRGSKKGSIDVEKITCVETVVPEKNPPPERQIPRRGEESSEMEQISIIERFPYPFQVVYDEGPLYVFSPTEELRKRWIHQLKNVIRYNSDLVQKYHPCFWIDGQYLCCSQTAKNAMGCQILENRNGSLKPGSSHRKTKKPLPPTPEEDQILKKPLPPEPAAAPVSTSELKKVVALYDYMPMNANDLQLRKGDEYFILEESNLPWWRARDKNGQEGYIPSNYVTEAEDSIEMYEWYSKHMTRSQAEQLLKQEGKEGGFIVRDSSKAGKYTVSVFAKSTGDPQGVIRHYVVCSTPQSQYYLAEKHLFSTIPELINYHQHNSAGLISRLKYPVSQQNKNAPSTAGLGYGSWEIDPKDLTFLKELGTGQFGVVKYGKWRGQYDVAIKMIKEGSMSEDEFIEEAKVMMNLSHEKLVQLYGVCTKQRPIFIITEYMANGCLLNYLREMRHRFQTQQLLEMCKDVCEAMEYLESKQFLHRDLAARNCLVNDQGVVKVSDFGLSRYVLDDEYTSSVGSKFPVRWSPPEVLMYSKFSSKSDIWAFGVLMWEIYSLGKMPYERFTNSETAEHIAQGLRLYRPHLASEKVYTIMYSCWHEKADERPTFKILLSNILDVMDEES
Chain of BTK WT (Q06187 whole entry): as above
T1 sequence (Q06187 whole entry C481S): as the sequence (Q06187 whole entry) above, with C481S counted along it

IC50 (BTK protein kinase) [nM]	Compound	also measured
	Cc1c(NC(=O)c2ccc(C(C)(C)C)cc2)cccc1-c1cn(C)c(=O)c(Nc2ccc(C(=O)N3CCOCC3)cc2)n1 [CGI1746, reference compound]	GI50 [1]: 126 nM
	C=CC(=O)N1CCC[C@@H](n2nc(-c3ccc(Oc4ccccc4)cc3)c3c(N)ncnc32)C1 [PCI32765, reference compound]	GI50 [1]: 1 nM
5	C=CC(=O)Nc1cc(Nc2cc(-c3cccc(NC(=O)c4ccc(N(C)C)cc4)c3C)cn(C)c2=O)ccc1C(=O)N1CCOCC1 [Compound 35, N-(3-(5-((3-acrylamide-4-(morpholin-4-carbonyl)phenyl)amino)-1-methyl-6-oxo-1,6-dihydropyridin-3-yl)-2-methylphenyl)-4-(dimethylamino)benzoylamide]	phosphorylation of tyrosine Y223 on Btk [2]: selectively and significantly inhibit phosphorylation of tyrosine Y223 on Btk; EC50 (BTK WT): 16 nM; EC50 (BTK C481S): 186 nM
42	CCC(=O)Nc1cc(Nc2cc(-c3cccc(NC(=O)c4ccc(C(C)(C)C)cc4)c3C)cn(C)c2=O)ccc1C(=O)N1CCNCC1 [Compound 41, N-(3-(5-((3-propanamide-4-(piperazin-1-carbonyl)phenyl)amino)-1-methyl-6-oxo-1,6-dihydropyridin-3-yl)-2-methylphenyl)-4-(tert-butyl)benzamide]	
152	Cc1ccc(C(=O)Nc2cccc(-c3cc(Nc4ccc(C(=O)N5CCOCC5)c(NC(=O)CCl)c4)c(=O)n(C)c3)c2C)cc1 [Compound 11, N-(3-(5-((3-chloroacetamide-4-(morpholin-4-carbonyl)phenyl)amino)-1-methyl-6-oxo-1,6-dihydropyridin-3-yl)-2-methylphenyl)-4-(methyl)benzoylamide]	
816	C=CC(=O)Nc1cc(Nc2cc(-c3cccc(NC(=O)c4cccc(OC)c4)c3C)cn(C)c2=O)ccc1C(=O)N1CCOCC1 [Compound 59, N-(3-(5-((3-acrylamide-4-(morpholin-4-carbonyl)phenyl)amino)-1-methyl-6-oxo-1,6-dihydropyridin-3-yl)-2-methylphenyl)-3-methoxy Benzoylamide]	
24.9	C=CC(=O)Nc1cc(Nc2cc(-c3cccc(NC(=O)c4ccc(N(C)C)cc4)c3C)cn(C)c2=O)ccc1N1CCOCC1 [Compound 73]	
